Results taken from patent publication US9115134B2, “6-triazolopyridazine sulfanyl benzothiazole derivatives as MET inhibitors” (SANOFI, priority 2007, dated 2015).
Counter-ions that a name gives are not always drawn.

Key:
[1] = target: T1, MET (Homo sapiens, UniProt P08581); test: Test A: HTRF MET assay in 96-well format; assay type: biochemical; parameters: The His-Tev-MET (956-1390) recombinant DNA in pFastBac (Invitrogen) is transfected into insect cells; His tag (N, cleaved yes); TEV cleavage site (N); made in house; host or cells: SF21 insect cells (baculovirus, pFastBac); conditions: MET 5 nM, 10 μM ATP
Procedure: I) Expression and Purification of MET, Cytoplasmic Domain
The His-Tev-MET (956-1390) recombinant DNA in pFastBac (Invitrogen) is transfected into insect cells, and after several viral amplification steps, the final baculovirus stock is tested for the expression of the protein of interest.
After infection for 72 h at 27° C. with the recombinant virus, the SF21 cell cultures are harvested by centrifugation and the cell pellets are stored at −80° C.
The cell pellets are resuspended in lysis buffer (buffer A [50 mM HEPES, pH 7.5, 250 mM NaCl, 10% glycerol, 1 mM TECP]; +cocktail of protease inhibitors, Roche Diagnostics, without EDTA, ref 1873580), stirred at 4° C. until the mixture is homogeneous and then lyzed mechanically using a “Dounce” type apparatus.
After centrifugation, the lysis supernatant is incubated for 2 h at 4° C. with nickel chelate resin (His-Trap 6 Fast Flow™, GE HealthCare). After washing with 20 volumes of buffer A, the suspension is packed into a column, and the proteins are eluted with a gradient of buffer B ([…]+290 mM imidazole).
The fractions containing the protein of interest for the purpose of electrophoretic analysis (SDS PAGE) are combined, concentrated by ultrafiltration (10 kDa cut-off) and injected onto an exclusion chromatography column (Superdex™ 200, GE HealthCare) equilibrated in buffer A.
After enzymatic cleavage of the histidine tag, the protein is reinjected onto a new IMAC nickel chelate chromatography column (His-Trap 6 Fast Flow™, GE HealthCare) equilibrated in buffer A. The fractions eluted with a gradient of buffer B and containing the protein of interest after electrophoresis (SDS PAGE) are finally combined and conserved at −80° C.
For the production of autophosphorylated protein, the previous fractions are incubated for 1 h at ambient temperature after the addition of 2 mM ATP, 2 mM MgCl2, and 4 mM Na3VO4. After the reaction has been stopped with 5 mM of EDTA, the reaction mixture is injected onto a HiPrep desalifying column (GE HealthCare) preequilibrated in buffer A+4 mM Na3VO4, and the fractions containing the protein of interest (SDS PAGE analysis) are combined and stored at −80° C. The degree of phosphorylation is verified by mass spectrometry (LC-MS) and by peptide mapping.
• A) Test A: HTRF MET assay in 96-well format
MET at a final concentration of 5 nM is incubated in a final volume of 50 μl of enzymatic reaction in the presence of the test molecule (for a final concentration range of from 0.17 nM to 10 μM, 3% DMSO final concentration) in 10 mM MOPS buffer, pH 7.4, 1 mM DTT, 0.01% Tween 20. The reaction is initiated with the substrate solution to obtain final concentrations of 1 μg/ml poly-(GAT), 10 μM ATP and 5 mM MgCl2. After incubation for 10 min at ambient temperature, the reaction is stopped with a 30 μl mix so as to obtain a final solution of 50 mM Hepes pH 7.5, 500 mM potassium fluoride, 0.1% BSA and 133 mM EDTA in the presence of 80 ng of streptavidin 61SAXLB Cis-Bio Int. and 18 ng of anti-phosphotyrosine Mab PT66-Europium Cryptate per well. After incubation for 2 hours at ambient temperature, the reading is taken at 2 wavelengths, 620 nm and 665 nm, on a reader for the TRACE/HTRF technique and the % inhibition is calculated from the 665/620 ratios.
Target sequence in this assay (P08581 956-1390): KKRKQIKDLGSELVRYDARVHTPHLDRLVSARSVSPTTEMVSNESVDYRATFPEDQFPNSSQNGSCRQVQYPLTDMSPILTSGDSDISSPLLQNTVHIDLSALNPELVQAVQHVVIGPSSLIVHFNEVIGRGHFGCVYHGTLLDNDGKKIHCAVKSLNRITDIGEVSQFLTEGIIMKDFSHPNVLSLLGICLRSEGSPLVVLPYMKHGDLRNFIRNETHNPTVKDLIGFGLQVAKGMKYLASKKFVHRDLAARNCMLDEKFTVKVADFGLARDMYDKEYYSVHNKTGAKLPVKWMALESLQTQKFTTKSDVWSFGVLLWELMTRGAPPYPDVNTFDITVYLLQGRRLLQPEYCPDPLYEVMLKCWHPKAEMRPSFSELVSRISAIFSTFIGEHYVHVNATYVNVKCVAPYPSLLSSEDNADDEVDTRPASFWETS

[2] = test system: HCT116 cells, MKN45 cells; test: Test C: Measurement of cell proliferation by 14C-thymidine pulse; assay type: cell-based; conditions: 14C-thymidine incorporation, 96 h of treatment; cell line not given
Procedure: (§1) Stop the reaction with 100 μl of stop solution. Read without delay at […], 0.1 second on Wallac Victor plate reader. • C) Test C: Measurement of cell proliferation by ^14c-thymidine pulse
The cells are seeded into Cytostar 96-well plates in 180 μl for 4 hours at 37° C. and 5% CO2: HCT116 cells at a rate of 2500 cells per well in DMEM medium+10% foetal calf serum+1% L-glutamine and MKN45 cells at a rate of 7500 cells per well in RPMI medium+10% foetal calf serum+1% L-glutamine. After these 4 hours of incubation, the products are added in 10 μl as a 20-fold concentrated solution according to the dilution method mentioned for the ELISA. The products are tested at 10 concentrations in duplicate from 10 000 nM to 0.3 nM with an increment of 3.
After treatment for 72 h, add 10 μl of ^14C-thymidine at 10 μCi/ml to obtain 0.1 μCi per well. The ^14C-thymidine incorporation is measured on a Micro-Beta machine (Perkin-Elmer) after 24 hours of pulse and 96 h of treatment.
All the steps of the assay are automated on BIOMEK 2000 or TECAN stations.

[3] = target: T1, MET; test: Test B: Inhibition of the autophosphorylation of MET; ELISA technique (pppY1230,1234,1235) in MKN45 cells; assay type: cell-based; parameters: Seed MKN45 cells into 96-well plates (Cell coat BD polylysine) at 20 000 cells/well; endogenous in cells; host or cells: MKN45 cells; conditions: 1 h treatment, PhosphoMET ELISA
Procedure: Leave to adhere for 24 hours in an incubator.
The cells are treated the day after seeding with the products at 6 concentrations in duplicate for 1 h. At least 3 control wells are treated with the same final amount of DMSO.
Product dilution: Stock at 10 mM in pure DMSO—range from 10 mM to 30 μM with an increment of 3 in pure DMSO—intermediate 1/50 dilutions in culture medium and then removal of 10 μl added directly to the cells (200 μl): final range of 10 000 to 30 nM.
At the end of the incubation, carefully remove the supernatant and rinse with 200 μl of PBS. Next, place 100 μl of lysis buffer directly in the wells on ice and incubate at 4° C. for 30 minutes. Lysis buffer: 10 mM Tris HCl, pH7.4, 100 mM NaCl, 1 mM EDTA, 1 mM EGTA, 1% Triton X-100, 10% glycerol, 0.1% SDS, 0.5% deoxycholate, 20 mM NaF, 2 mM Na3VO4, 1 mM PMSF and cocktail of antiproteases.
The 100 μl of lysates are transferred into a V-bottomed polypropylene plate and the ELISA is performed immediately, or the plate is frozen at −80° C. • b) PhosphoMET ELISA BioSource Kit KH00281
Into each well of the kit plate, add 70 μl of kit dilution buffer+30 μL of cell lysate or 30 μl of lysis buffer for the blanks. Incubate for 2 h with gentle agitation at ambient temperature.
Rinse the wells 4 times with 400 μl of kit washing buffer. Incubate with 100 μl of anti-phospho MET antibody for 1 hour at ambient temperature.
Rinse the wells 4 times with 400 μl of kit washing buffer. Incubate with 100 μl of anti-rabbit HRP antibody for 30 minutes at ambient temperature (except for the wells of chromogen alone).
Rinse the wells 4 times with 400 μl of kit washing buffer. Introduce 100 μL of chromogen and incubate for 30 minutes in the dark at ambient temperature.
as §1
Target sequence in this assay (P08581 25-1390): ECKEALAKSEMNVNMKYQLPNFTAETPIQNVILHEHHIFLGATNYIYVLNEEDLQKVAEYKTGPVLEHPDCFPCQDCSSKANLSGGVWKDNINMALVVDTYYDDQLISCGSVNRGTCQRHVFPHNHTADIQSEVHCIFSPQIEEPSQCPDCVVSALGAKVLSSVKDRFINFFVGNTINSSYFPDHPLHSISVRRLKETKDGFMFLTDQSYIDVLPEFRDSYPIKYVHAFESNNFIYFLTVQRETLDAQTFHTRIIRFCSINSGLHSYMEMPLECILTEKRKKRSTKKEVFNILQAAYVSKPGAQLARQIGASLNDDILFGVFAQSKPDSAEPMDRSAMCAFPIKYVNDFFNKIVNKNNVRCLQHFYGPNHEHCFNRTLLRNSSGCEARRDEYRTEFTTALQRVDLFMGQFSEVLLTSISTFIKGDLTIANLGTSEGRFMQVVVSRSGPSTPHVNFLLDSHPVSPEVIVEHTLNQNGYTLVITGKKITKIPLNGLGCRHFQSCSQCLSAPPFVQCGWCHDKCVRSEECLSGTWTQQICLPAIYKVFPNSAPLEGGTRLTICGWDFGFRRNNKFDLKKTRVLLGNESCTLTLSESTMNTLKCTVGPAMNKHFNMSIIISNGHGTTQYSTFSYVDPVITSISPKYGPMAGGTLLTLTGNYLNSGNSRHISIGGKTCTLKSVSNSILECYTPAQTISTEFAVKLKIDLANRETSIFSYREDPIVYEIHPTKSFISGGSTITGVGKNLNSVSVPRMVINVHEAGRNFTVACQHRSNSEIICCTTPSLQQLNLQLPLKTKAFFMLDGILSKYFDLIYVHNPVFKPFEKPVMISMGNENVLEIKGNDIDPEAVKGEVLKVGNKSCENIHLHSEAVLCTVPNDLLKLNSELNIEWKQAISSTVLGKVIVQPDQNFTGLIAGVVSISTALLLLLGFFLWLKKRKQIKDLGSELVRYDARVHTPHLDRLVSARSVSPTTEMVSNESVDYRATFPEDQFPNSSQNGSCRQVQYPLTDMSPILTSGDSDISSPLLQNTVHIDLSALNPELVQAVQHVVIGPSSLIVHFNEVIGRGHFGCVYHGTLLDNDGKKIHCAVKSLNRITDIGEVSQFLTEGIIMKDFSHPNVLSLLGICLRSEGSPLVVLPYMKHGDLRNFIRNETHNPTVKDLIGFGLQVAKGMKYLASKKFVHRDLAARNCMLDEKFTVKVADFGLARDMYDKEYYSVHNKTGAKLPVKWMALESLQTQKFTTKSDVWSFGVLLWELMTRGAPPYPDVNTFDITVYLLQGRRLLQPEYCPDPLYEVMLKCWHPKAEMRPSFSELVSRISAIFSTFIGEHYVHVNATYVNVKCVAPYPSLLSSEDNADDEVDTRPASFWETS

SMILES	IC50 [1]	IC50 [2]	IC50 [3]
O=C(CCCN1CCOCC1)Nc1nc2ccc(Sc3nnc4ccc(-c5ccc(F)cc5)nn34)cc2s1 [Example 15, N-(6-{[6-(4-Fluorophenyl)[1,2,4]triazolo[4,3-b]pyridazin-3-yl]sulphanyl}-1,3-benzothiazol-2-yl)-4-morpholin-4-ylbutanamide]	< 100 nM	< 1000 nM	< 100 nM
CC(C)(C)OC(=O)Nc1nc2ccc(Sc3nnc4ccc(N5CCOCC5)nn34)cc2s1 [Example 16, 1,1-Dimethylethyl (6-{[6-(morpholin-4-yl)[1,2,4]triazolo[4,3-b]pyridazin-3-yl]sulphanyl}-1,3-benzothiazol-2-yl)carbamate]	< 100 nM	< 1000 nM	< 100 nM
CCN(CC)CCNC(=O)Nc1nc2ccc(Sc3nnc4ccc(-c5ccc(F)cc5)nn34)cc2s1 [Example 17, 1-[2-(Diethylamino)ethyl]-3-(6-{[6-(4-fluorophenyl)[1,2,4]triazolo[4,3-b]pyridazin-3-yl]sulphanyl}-1,3-benzothiazol-2-yl)urea]	< 100 nM	< 1000 nM	< 100 nM
CN1CCN(c2ccc3nnc(Sc4ccc5nc(NC(=O)OC(C)(C)C)sc5c4)n3n2)CC1 [Example 19, 1,1-Dimethylethyl (6-{[6-(4-methylpiperazin-1-yl)[1,2,4]triazolo[4,3-b]pyridazin-3-yl]sulphanyl}-1,3-benzothiazol-2-yl)carbamate hydrochloride]	< 100 nM	< 1000 nM	< 100 nM
O=C(NCCN1CCOCC1)Nc1nc2ccc(Sc3nnc4ccc(-n5ccnc5)nn34)cc2s1 [Example 20, 1-(6-{[6-(1H-Imidazol-1-yl)[1,2,4]triazolo[4,3-b]pyridazin-3-yl]sulphanyl}-1,3-benzothiazol-2-yl)-3-[2-(morpholin-4-yl)ethyl]urea]	< 100 nM	< 1000 nM	< 100 nM
CC(C)(C)OC(=O)Nc1nc2ccc(Sc3nnc4ccc(-n5ccnc5)nn34)cc2s1 [Example 22, 1,1-Dimethylethyl (6-{[6-(1H-imidazol-1-yl)[1,2,4]triazolo[4,3-b]pyridazin-3-yl]sulphanyl}-1,3-benzothiazol-2-yl)carbamate]	< 100 nM	< 1000 nM	100 to 500 nM
COCCNc1ccc2nnc(Sc3ccc4nc(NC(C)=O)sc4c3)n2n1 [Example 27, N-[6-({6-[(2-Methoxyethyl)amino][1,2,4]triazolo[4,3-b]pyridazin-3-yl}sulphanyl)-1,3-benzothiazol-2-yl]acetamide]	< 100 nM	< 1000 nM	< 100 nM

Results, then the molecule that gave them:

IC50 [1]	IC50 [2]	IC50 [3]	SMILES
< 100 nM	< 1000 nM	100 to 500 nM	CC(=O)Nc1nc2ccc(Sc3nnc4ccc(N5CCOCC5)nn34)cc2s1 [Example 18, N-(6-{[6-(Morpholin-4-yl)[1,2,4]triazolo[4,3-b]pyridazin-3-yl]sulphanyl}-1,3-benzothiazol-2-yl)acetamide]
< 100 nM	< 1000 nM	100 to 500 nM	COc1ccc2nnc(Sc3ccc4nc(NC(=O)OC(C)(C)C)sc4c3)n2n1 [Example 21, 1,1-Dimethylethyl {6-[(6-methoxy[1,2,4]triazolo[4,3-b]pyridazin-3-yl)sulphanyl]-1,3-benzothiazol-2-yl}carbamate]
< 100 nM	< 1000 nM	< 100 nM	COc1ccc2nnc(Sc3ccc4nc(NC(=O)NCCN5CCOCC5)sc4c3)n2n1 [Example 23, 1-{6-[(6-Methoxy[1,2,4]triazolo[4,3-b]pyridazin-3-yl)sulphanyl]-1,3-benzothiazol-2-yl}-3-[2-(morpholin-4-yl)ethyl]urea]
< 100 nM	< 1000 nM	< 100 nM	COCCNc1ccc2nnc(Sc3ccc4nc(NC(=O)OC(C)(C)C)sc4c3)n2n1 [Example 24, 1,1-Dimethylethyl[6-({6-[(2-methoxyethyl)amino][1,2,4]triazolo[4,3-b]pyridazin-3-yl}sulphanyl)-1,3-benzothiazol-2-yl]carbamate]
< 100 nM	< 1000 nM	100 to 500 nM	CC(=O)Nc1nc2ccc(Sc3nnc4ccc(N5CCN(C)CC5)nn34)cc2s1 [Example 25, N-(6-{[6-(4-Methylpiperazin-1-yl)[1,2,4]triazolo[4,3-b]pyridazin-3-yl]sulphanyl}-1,3-benzothiazol-2-yl)acetamide]
< 100 nM	< 1000 nM	< 100 nM	COCCNc1nc2ccc(Sc3nnc4ccc(-c5ccc(F)cc5)nn34)cc2s1 [Example 26, 6-{[6-(4-Fluorophenyl)[1,2,4]triazolo[4,3-b]pyridazin-3-yl]sulphanyl}-N-(2-methoxyethyl)-1,3-benzothiazol-2-amine]
< 100 nM	< 1000 nM	< 100 nM	O=C(NCCN1CCOCC1)Nc1nc2ccc(Sc3nnc4ccc(N5CCOCC5)nn34)cc2s1 [Example 28, 1-[2-(Morpholin-4-yl)ethyl]-3-(6-{[6-(morpholin-4-yl)[1,2,4]triazolo[4,3-b]-pyridazin-3-yl]sulphanyl}-1,3-benzothiazol-2-yl)urea]
